{
  "source": "paper PMC10126473",
  "about": "(Frontiers in Pharmacology, 2023)",
  "key": {"[1]": {"assay": "Mouse PK and tissue distribution study (non-compartmental analysis)", "details": "mice; for Tmax / half-life: male, C57BL/6, mouse, in vivo, po; for Tmax: Tmax Obs; for half-life: t1/2 Obs", "experimental": "The in-life study (Animal Study Protocol Number: NIH ORS-51) was conducted at the NIH Animal Facility by the Division of Veterinary Resources (DVR, Bethesda, MD). In this study, 25–35 g male C57BL/6 mice (Charles River Laboratories, Frederick, MD) were used. For the IV groups, 66 mice (33 mice per dosing group, 3 mice per timepoint) were used for a single bolus IV dose of 3 or 10 mg/kg of PDN via tail vein injection. […] The IV and PO doses were selected to obtain a complete concentration profile in plasma and tissues, based on a preliminary study. Animals were not fasted in this study. […] All dosing solutions were freshly prepared on the day of dosing. At designated time points, blood samples were collected, and mice were euthanized with CO2 in accordance with NIH ARAC Guidelines after blood collection. The death was ensured by cervical dislocation or transthoracic puncture. Lung, liver, adipose, brain, heart, small intestine, kidney, skeletal muscle, and spleen samples were obtained from mice. […] Tissue samples were rinsed with cold saline, dried on filtrate paper, weighed, and snap frozen by placing into dry ice after collection. All samples were stored at −80°C until the analysis. All blood samples were collected in K2EDTA tubes and centrifuged at 3000 g for 10 min at 4°C to obtain plasma. Plasma samples were transferred to tubes preloaded with NaF (final concentration at 5 mM in 200 µL plasma) and stored at −80°C until analysis.\nFor fat tissue, an additional 3-fold volume of acetonitrile was added to the water homogenate and was vortexed in a shaker for another 30 min.\nA 10 μ aliquot of samples, blank controls (blank plasma or tissue homogenates), quality controls (QC), and standards were added into 200 μ acetonitrile solution with 100 ng/mL tolbutamide (internal standard, IS). All samples were then thoroughly shaken for 5 min to precipitate proteins. The samples were centrifuged at 3000 rpm and 4°C for 30 min. The supernatant was injected for UPLC-MS/MS analysis.\nThe mobile phase consisted of 0.1% formic acid in water (A) and 0.1% formic acid in acetonitrile (B), the flow rate was 600 μL/min. […] All analyses were carried out using a Waters Acquity I-Class UPLC interfaced with a Waters Xevo TQ-S mass spectrometer. The mass spectrometer multiple reaction monitoring (MRM) experiment was operated with an ESI source at negative mode with spray voltage of 1 kV, and temperature of 600°C. Both Q1 and Q3 were set at unit resolution. […] The correlation coefficients of the calibration curves were all greater than 0.99. […] The linear range, precision and accuracy of QCs in various tissues and plasma are shown in Supplementary Table S1 and Supplementary Table S2.\nThe area under the concentration vs. time curve (AUC) was calculated using the linear trapezoidal method. The terminal rate constant (λ) was obtained from the slope of at least three data points of the apparent terminal phase of the log linear concentration vs. time curve. AUC0–∞ was estimated as the sum of the AUC0–t (where t is the time of the last measurable concentration) and Ct/λ. […] Bioavailability (F) was calculated using ratios of dose-normalized AUC of PO and IV administration."}, "[2]": {"assay": "Metabolic stability and biotransformation in liver microsomes", "details": "for Liver Vmax: in vitro", "procedure": "The incubation was carried out at 37°C for 15, 30, and 60 min. The reaction in plasma or liver microsomes was quenched by adding 200 μL of cold acetonitrile (containing 100 ng/mL tolbutamide as internal standard).\nThe mc was the microsome concentration used in the incubation (0.5 mg/mL). The substrate disappearance half-life (t1/2) was estimated by regression analysis of the semi-logarithmic (ln Conc vs. time) plots. […] The Vmax, in vitro,app, PDN-total and Km for PDN depletion in liver microsomes were estimated by the Michaelis-Menten model using GraphPad Prism version 8."}, "[3]": {"details": "10 mg/kg, PO 10 mg/kg PDN, brain"}, "[4]": {"details": "10 mg/kg, PO 10 mg/kg PDN, heart"}, "[5]": {"details": "10 mg/kg, PO 10 mg/kg PDN, intestine"}, "[6]": {"details": "10 mg/kg, PO 10 mg/kg PDN, kidney"}, "[7]": {"details": "10 mg/kg, PO 10 mg/kg PDN, liver"}, "[8]": {"details": "10 mg/kg, PO 10 mg/kg PDN, lung"}, "[9]": {"details": "10 mg/kg, PO 10 mg/kg PDN, muscle"}, "[10]": {"details": "10 mg/kg, PO 10 mg/kg PDN, plasma"}, "[11]": {"details": "10 mg/kg, PO 10 mg/kg PDN, spleen"}},
  "data": [
    {"smiles": "O=C(Nc1ccc([N+](=O)[O-])cc1Cl)c1cc(Cl)ccc1OC(=O)N1CCNCC1", "note": "[PDN]", "values": [
      {"measurement": "Tmax", "setting": "[1]; [3]", "result": 1.5, "unit": "h"},
      {"measurement": "Tmax", "setting": "[1]; [4]", "result": 1.5, "unit": "h"},
      {"measurement": "Tmax", "setting": "[1]; [5]", "result": 0.167, "unit": "h"},
      {"measurement": "Tmax", "setting": "[1]; [6]", "result": 1.5, "unit": "h"},
      {"measurement": "Tmax", "setting": "[1]; [7]", "result": 1.5, "unit": "h"},
      {"measurement": "Tmax", "setting": "[1]; [8]", "result": 1.5, "unit": "h"},
      {"measurement": "Tmax", "setting": "[1]; [9]", "result": 1.5, "unit": "h"},
      {"measurement": "Tmax", "setting": "[1]; [10]", "result": 1.5, "unit": "h"},
      {"measurement": "Tmax", "setting": "[1]; [11]", "result": 1.5, "unit": "h"},
      {"measurement": "half-life", "setting": "[1]; 10 mg/kg, PO 10 mg/kg PDN, adipose", "result": 3.48, "unit": "h"},
      {"measurement": "half-life", "setting": "[1]; [3]", "result": 2.45, "unit": "h"},
      {"measurement": "half-life", "setting": "[1]; [4]", "result": 2.16, "unit": "h"},
      {"measurement": "half-life", "setting": "[1]; [5]", "result": 1.79, "unit": "h"},
      {"measurement": "half-life", "setting": "[1]; [6]", "result": 2.99, "unit": "h"},
      {"measurement": "half-life", "setting": "[1]; [7]", "result": 2.36, "unit": "h"},
      {"measurement": "half-life", "setting": "[1]; [8]", "result": 3.29, "unit": "h"},
      {"measurement": "half-life", "setting": "[1]; [9]", "result": 2.83, "unit": "h"},
      {"measurement": "half-life", "setting": "[1]; [10]", "result": "~3.2", "unit": "h"},
      {"measurement": "half-life", "setting": "[1]; [11]", "result": 3.16, "unit": "h"},
      {"measurement": "AUC0-∞ Obs", "setting": "[1]; IV 3 mg/kg PDN, adipose", "result": "990 (169) h*ng/g"},
      {"measurement": "AUC0-∞ Obs", "setting": "[1]; IV 3 mg/kg PDN, brain", "result": "1024 (124) h*ng/g"},
      {"measurement": "AUC0-∞ Obs", "setting": "[1]; IV 3 mg/kg PDN, heart", "result": "5676 (481) h*ng/g"},
      {"measurement": "AUC0-∞ Obs", "setting": "[1]; IV 3 mg/kg PDN, intestine", "result": "3222 (749) h*ng/g"},
      {"measurement": "AUC0-∞ Obs", "setting": "[1]; IV 3 mg/kg PDN, kidney", "result": "9833 (1080) h*ng/g"},
      {"measurement": "AUC0-∞ Obs", "setting": "[1]; IV 3 mg/kg PDN, lung", "result": "53071 (4993) h*ng/g"},
      {"measurement": "AUC0-∞ Obs", "setting": "[1]; IV 3 mg/kg PDN, muscle", "result": "1828 (221) h*ng/g"},
      {"measurement": "AUC0-∞ Obs", "setting": "[1]; IV 3 mg/kg PDN, spleen", "result": "16808 (1242) h*ng/g"},
      {"measurement": "AUC0-∞ Obs", "setting": "[1]; IV 10 mg/kg PDN, brain", "result": "5622 (1331) h*ng/g"},
      {"measurement": "AUC0-∞ Obs", "setting": "[1]; IV 10 mg/kg PDN, heart", "result": "31647 (6073) h*ng/g"},
      {"measurement": "AUC0-∞ Obs", "setting": "[1]; IV 10 mg/kg PDN, intestine", "result": "14586 (1295) h*ng/g"},
      {"measurement": "AUC0-∞ Obs", "setting": "[1]; IV 10 mg/kg PDN, kidney", "result": "62371 (6713) h*ng/g"},
      {"measurement": "AUC0-∞ Obs", "setting": "[1]; IV 10 mg/kg PDN, liver", "result": "883 (323) h*ng/g"},
      {"measurement": "AUC0-∞ Obs", "setting": "[1]; IV 10 mg/kg PDN, lung", "result": "173216 (21722) h*ng/g"},
      {"measurement": "AUC0-∞ Obs", "setting": "[1]; IV 10 mg/kg PDN, muscle", "result": "10301 (2999) h*ng/g"},
      {"measurement": "AUC0-∞ Obs", "setting": "[1]; IV 10 mg/kg PDN, spleen", "result": "63505 (10129) h*ng/g"},
      {"measurement": "AUC0-∞ Obs", "setting": "[1]; PO 10 mg/kg PDN, adipose", "result": "2788 (299) h*ng/g"},
      {"measurement": "AUC0-∞ Obs", "setting": "[1]; PO 10 mg/kg PDN, brain", "result": "2741 (488) h*ng/g"},
      {"measurement": "AUC0-∞ Obs", "setting": "[1]; PO 10 mg/kg PDN, heart", "result": "10680 (1787) h*ng/g"},
      {"measurement": "AUC0-∞ Obs", "setting": "[1]; PO 10 mg/kg PDN, intestine", "result": "37739 (6003) h*ng/g"},
      {"measurement": "AUC0-∞ Obs", "setting": "[1]; PO 10 mg/kg PDN, kidney", "result": "40372 (8592) h*ng/g"},
      {"measurement": "AUC0-∞ Obs", "setting": "[1]; PO 10 mg/kg PDN, liver", "result": "591 (176) h*ng/g"},
      {"measurement": "AUC0-∞ Obs", "setting": "[1]; PO 10 mg/kg PDN, lung", "result": "123875 (23366) h*ng/g"},
      {"measurement": "AUC0-∞ Obs", "setting": "[1]; PO 10 mg/kg PDN, muscle", "result": "4005 (814) h*ng/g"},
      {"measurement": "AUC0-∞ Obs", "setting": "[1]; PO 10 mg/kg PDN, spleen", "result": "45737 (9727) h*ng/g"},
      {"measurement": "F (bioavailability) Obs", "setting": "[1]; PO 10 mg/kg PDN, 10 mg/kg", "result": 85.8, "unit": "%"},
      {"measurement": "Liver Vmax", "setting": "[2]; conversion to Nc, hamster", "result": 0.0085, "unit": "mg/s/mg microsomes"},
      {"measurement": "Gut Vmax", "setting": "[2]; conversion to Nc, hamster, in vitro (in vitro liver parameters)", "result": 0.0085, "unit": "mg/s/mg microsomes"},
      {"measurement": "Liver Vmax", "setting": "[2]; conversion to Others, hamster", "result": 0.1059, "unit": "mg/s/mg microsomes"},
      {"measurement": "Vmax in vitro,app, PDN-total", "setting": "[2]; hamster liver microsomes", "result": "1.238 ± 0.133", "unit": "nmol/min/mg"},
      {"measurement": "Km", "setting": "[2]; hamster, pH 7.4", "result": "10.8 ± 3.04", "unit": "µM"}
    ]}
  ]
}
